Reference: ChEMBL document CHEMBL3832071, “DailyMed|setid=56428c8f-8a4b-4cbf-93f1-28d8b5cfb51a | MYCOPHENOLATE MOFETIL- mycophenolate mofetil capsule|MYCOPHENOLATE MOFETIL- mycophenolate mofetil tablet, film coated | Cadila Healthcare Limited”
Values joined by “and” are separate entries in the source; they are usually repeats but may differ in a detail not shown here. Equal values may be shown once.

Tests used:
Format in all cases: ADME, organism-based
Homo sapiens [1] = test: Pharmacokinetic parameters for Mycophenolic acid following single oral administration of Mycophenolate Mofetil to subjects with different health status.; set-up: dose 1 g, route oral; settings: in vivo, dosed compound id 90, dosed compound name MYCOPHENOLATE MOFETIL, gender male and female, regimen Single dose, tissue Plasma
Homo sapiens [2] = test: Apparent Volume of distribution (Vd) of […] following oral and intravenous (IV) administration of Mycophenolate Mofetil to 12 healthy volunteers; settings: in vivo, dosed compound id 90, dosed compound name MYCOPHENOLATE MOFETIL, gender male and female, tissue Plasma
Homo sapiens [3] = test: Pharmacokinetic parameters for Mycophenolic acid following multiple administration of Mycophenolate Mofetil to hepatic, cardiac and renal transplant patients, at least 5 days after transplant.; set-up: dose 600 mg/m2, dose 1.5 g, dose 1 g, route oral, route iv; settings: in vivo, 120 h, dosed compound id 90, dosed compound name MYCOPHENOLATE MOFETIL, gender male and female, regimen Twice daily, tissue Plasma

COc1c(C)c2c(c(O)c1C/C=C(\C)CCC(=O)O)C(=O)OC2 [MYCOPHENOLIC ACID]
Tmax (Homo sapiens [1]; dose 1 g, route oral): 0.8 h and 0.75 h and 0.63 h and 1 h and 0.85 h
AUC(0-48) (Homo sapiens [1]): 29800 ng·h/mL
AUC(0-96) (Homo sapiens [1]): 45000 ng·h/mL and 59900 ng·h/mL and 78600 ng·h/mL
Cmax (Homo sapiens [1]): 24500 ng/mL and 25300 ng/mL and 16300 ng/mL and 22400 ng/mL
Total AUC (Homo sapiens [1]): 63900 ng·h/mL
Vd (Homo sapiens [2]; iv): 3.6 L/kg
Vd (Homo sapiens [2]; po): 4 L/kg
AUC(0-12) (Homo sapiens [3]; sampling time1 4 hours): 54.1 µg·h/mL
AUC(0-12) (Homo sapiens [3]): 43.3 mcg.hr/mL [middle of 21 runs]
Tmax (Homo sapiens [3]; iv, dose 1 g): 1.58 h and 1.5 h
Tmax (Homo sapiens [3]; po, dose 1 g): 1.33 h and 1.31 h
Tmax (Homo sapiens [3]; po, dose 1.5 g): 1.15 hr [middle of 5 runs]
